Test results: patent publication US11970479B2, “3-(1H-pyrazol-4-yl)pyridine allosteric modulators of the M4 muscarinic acetylcholine receptor” (Merck Sharp & Dohme LLC, priority 2018, dated 2024)

target: T1, human M4 muscarinic acetylcholine receptor (Homo sapiens, UniProt P08173); experiment: human FLIPR-based M4 PAM assay (CHO-K1 cells with human M4 receptor and Gαqi5, calcium dye fluorescence, EC20 acetylcholine); type: cell-based; conditions: inflection point (IP) of the dose response curve, human M4 receptor/Gαqi5, acetylcholine at 20% of maximum response, read-out: M4PAM Hu IP
T1 construct: expressed in transfected cells
T1 sequence (P08173 1-479): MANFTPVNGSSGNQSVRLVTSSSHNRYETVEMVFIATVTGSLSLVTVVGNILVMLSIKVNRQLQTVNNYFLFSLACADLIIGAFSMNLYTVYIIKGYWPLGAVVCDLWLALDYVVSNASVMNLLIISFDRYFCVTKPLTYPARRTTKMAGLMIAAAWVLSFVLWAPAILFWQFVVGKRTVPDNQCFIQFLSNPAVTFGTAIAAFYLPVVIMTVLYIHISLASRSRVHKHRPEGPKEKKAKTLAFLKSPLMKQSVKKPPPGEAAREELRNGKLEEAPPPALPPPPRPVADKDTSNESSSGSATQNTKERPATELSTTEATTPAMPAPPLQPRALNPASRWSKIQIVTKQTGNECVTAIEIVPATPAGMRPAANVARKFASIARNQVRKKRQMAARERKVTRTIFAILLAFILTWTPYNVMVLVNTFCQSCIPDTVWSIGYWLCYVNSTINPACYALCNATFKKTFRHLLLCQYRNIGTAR
Method: (§1) In a typical experiment the M4 muscarinic acetylcholine receptor modulating activity of the compounds of the present invention was determined in accordance with the following experimental method. CHO-K1 cells stably transfected with human M4 receptor and chimeric G-protein Gαqi5 (Coward P, et al., Analytical Biochemistry, 270:242-248 (1999)) are thawed from liquid N2 storage, resuspended in growth medium, plated in black, clear bottom 384 well plates, and incubated 16-20 hours at 37° C., 5% CO2. On the day of assay, growth medium is removed, the cells are washed 2 times with wash buffer, and cells are incubated in dye loading buffer at 37° C., 5% CO2 for ˜1 hour. Following dye loading the cell plates are placed in a FLIPR Tetra instrument and while monitoring dye fluorescence (excitation […]), 10 uL of test substance at increasing concentrations is added, and fluorescence values are recorded for 4 min. Next, 10 uL of acetylcholine is added (final concentration calculated so as to achieve 20% of the maximum acetycholine response), and the fluorescence reading is continued for 3.5 min. In some cases, a third addition of acetylcholine (final concentration calculated to achieve 70% of the maximal acetylcholine response) is performed. The resulting dose response curves are fit to a 4 parameter logistic equation and the final result is determined as the inflection point (IP) of the curve
as §1, with “CHO-K1” for “In a typical experiment the M4 muscarinic acetylcholine receptor modulating activity of the compounds of the present invention was determined in accordance with the following experimental method. CHO-K1”, “Gαqi5” for “Gαqi5 (Coward P, et al., Analytical Biochemistry, 270:242-248 (1999))”, “performed.” for “performed. The resulting dose response curves are fit to a 4 parameter logistic equation and the final result is determined as the inflection point (IP) of the curve”

SMILES	EC50
COc1cc2ccc(-c3nc(C#N)c(C)cc3-c3cnn(CC(C)(C)OC)c3)cc2nn1 [Example 33, 6-(3-methoxycinnolin-7-yl)-5-[1-(2-methoxy-2-methylpropyl)-1H-pyrazol-4-yl]-3-methylpyridine-2-carbonitrile]	84 nM
CC(C)(C)Cn1cc(-c2ccc(C#N)nc2-c2ccc3cc(Cl)nnc3c2)cn1 [Example 42, 6-(3-chlorocinnolin-7-yl)-5-[1-(2,2-dimethylpropyl)-1H-pyrazol-4-yl]pyridine-2-carbonitrile]	47 nM
COc1cc2ccc(-c3nc(C)ccc3-c3cnn(CC4(C)CC4)c3)cc2nn1 [Example 26, 3-methoxy-7-(6-methyl-3-{1-[(1-methylcyclopropyl)methyl]-1H-pyrazol-4-yl}pyridin-2-yl)cinnoline]	70 nM
CC1(C)CC1Cn1cc(-c2ccc(C#N)nc2-c2ccc3cccnc3c2)cn1 (stereo not drawn) [Example 103, 5-{1-[(2,2-dimethylcyclopropyl)methyl]-1H-pyrazol-4-yl}-6-quinolin-7-ylpyridine-2-carbonitrile]	45 nM
COc1cc2ccc(-c3nc(C)ccc3-c3cnn(CC45CC6CC(CC(C6)C4)C5)c3)cc2nn1 [Example 13, 7-(3-(1-(((3r,5r,7r)-adamantan-1-yl)methyl)-1H-pyrazol-4-yl)-6-methylpyridin-2-yl)-3-methoxycinnoline]	37 nM
Cc1ccc(-c2cnn(CC3(C)CCC(F)(F)CC3)c2)c(-c2ccc3cccnc3c2)n1 [Example 93, 7-(3-{1-[(4,4-difluoro-1-methylcyclohexyl)methyl]-1H-pyrazol-4-yl}-6-methylpyridin-2-yl)quinoline]	24 nM
COc1cc2ccc(-c3nc(C)ccc3-c3cnn(CCC4CCOC4)c3)cc2nn1 (stereo not drawn) [Example 81, 3-methoxy-7-(6-methyl-3-{1-[2-(tetrahydrofuran-3-yl)ethyl]-1H-pyrazol-4-yl}pyridin-2-yl)cinnoline]	228 nM
Cc1ccc(-c2cnn(CC3(C)CCCCC3)c2)c(-c2ccc3cc(C(F)(F)F)cnc3c2)n1 [Example 7, 7-(6-methyl-3-{1-[(1-methylcyclohexyl)methyl]-1H-pyrazol-4-yl}pyridin-2-yl)-3-(trifluoromethyl)quinoline]	137 nM
COc1cc2ccc(-c3nc(C)c(C)cc3-c3cnn(CC(C)(C)OC)c3)cc2nn1 [Example 35, 3-methoxy-7-{3-[1-(2-methoxy-2-methylpropyl)-1H-pyrazol-4-yl]-5,6-dimethylpyridin-2-yl}cinnoline]	187 nM
Cc1ccc(-c2cnn(Cc3ccccc3F)c2)c(-c2ccc3cccnc3c2)n1 [Example 20, 7-{3-[1-(2-fluorobenzyl)-1H-pyrazol-4-yl]-6-methylpyridin-2-yl}quinoline]	92 nM
COc1cc2ccc(-c3nc(C)ccc3-c3cnn(CC4CC5(CCC5)C4)c3)cc2nn1 [Example 83, 3-methoxy-7-{6-methyl-3-[1-(spiro[3.3]hept-2-ylmethyl)-1H-pyrazol-4-yl]pyridin-2-yl}cinnoline]	99 nM
COc1cc2ccc(-c3nc(C)ccc3-c3cnn(CCC(C)(C)F)c3F)cc2nn1 [Example 36, 7-{3-[5-fluoro-1-(3-fluoro-3-methylbutyl)-1H-pyrazol-4-yl]-6-methylpyridin-2-yl}-3-methoxycinnoline]	14 nM
COc1cc2ccc(-c3nc(C)ccc3-c3cnn(CC(C)(C)C#N)c3)cc2nn1 [Example 84, 3-{4-[2-(3-methoxycinnolin-7-yl)-6-methylpyridin-3-yl]-1H-pyrazol-1-yl}-2,2-dimethylpropanenitrile]	198 nM
CC(C)Cn1cc(-c2ccc(C#N)nc2-c2ccc3cccnc3c2)cn1 [Example 110, 5-[1-(2-methylpropyl)-1H-pyrazol-4-yl]-6-quinolin-7-ylpyridine-2-carbonitrile]	129 nM
Cc1ccc(-c2cnn(CCC(C)C(F)(F)F)c2)c(-c2ccc3cccnc3c2)n1 (stereo not drawn) [Example 11, 7-{6-methyl-3-[1-(4,4,4-trifluoro-3-methylbutyl)-1H-pyrazol-4-yl]pyridin-2-yl}quinoline]	89 nM
COc1cc2ccc(-c3nc(C)ccc3-c3cnn(Cc4ccccc4F)c3)cc2nn1 [Example 21, 7-{3-[1-(2-fluorobenzyl)-1H-pyrazol-4-yl]-6-methylpyridin-2-yl}-3-methoxycinnoline]	62 nM
Cc1nc(-c2ccc3cccnc3c2)c(-c2cnn(CC3(C(F)(F)F)CC3)c2)cc1C#N [Example 56, 2-methyl-6-quinolin-7-yl-5-(1-{[1-(trifluoromethyl)cyclopropyl]methyl}-1H-pyrazol-4-yl)pyridine-3-carbonitrile]	275 nM

Further compounds by falling EC50, results first:

EC50	SMILES
271 nM	COc1cc2ccc(-c3nc(C)ccc3-c3cnn(CCCC(F)(F)F)c3)cc2nn1 [Example 77, 3-methoxy-7-{6-methyl-3-[1-(4,4,4-trifluorobutyl)-1H-pyrazol-4-yl]pyridin-2-yl}cinnoline]
243 nM	COc1cc2ccc(-c3nc(C)c(C#N)cc3-c3cnn(CC4(C(F)(F)F)CC4)c3)cc2nn1 [Example 57, 6-(3-methoxycinnolin-7-yl)-2-methyl-5-(1-{[1-(trifluoromethyl)cyclopropyl]methyl}-1H-pyrazol-4-yl)pyridine-3-carbonitrile]
166 nM	COc1cc2ccc(-c3nc(C)ccc3-c3cnn(CCC4CC(F)(F)C4)c3)cc2nn1 [Example 79, 7-(3-{1-[2-(3,3-difluorocyclobutyl)ethyl]-1H-pyrazol-4-yl}-6-methylpyridin-2-yl)-3-methoxycinnoline]
139 nM	CC(C)(CO)Cn1cc(-c2ccc(C#N)nc2-c2ccc3cccnc3c2)cn1 [Example 113, 5-[1-(3-hydroxy-2,2-dimethylpropyl)-1H-pyrazol-4-yl]-6-quinolin-7-ylpyridine-2-carbonitrile]
120 nM	N#CCC1(Cn2cc(-c3ccc(C#N)nc3-c3ccc4cccnc4c3)cn2)CC1 [Example 105, 5-(1-{[1-(cyanomethyl)cyclopropyl]methyl}-1H-pyrazol-4-yl)-6-quinolin-7-ylpyridine-2-carbonitrile]
95 nM	CC(C)CCn1cc(-c2ccc(F)nc2-c2ccc3cccnc3c2)cn1 [Example 65, 7-{6-fluoro-3-[1-(3-methylbutyl)-1H-pyrazol-4-yl]pyridin-2-yl}quinoline]
84 nM	CC(C)CCn1cc(-c2cccnc2-c2ccc3ccc(Cl)nc3c2)cn1 [Example 62, 2-chloro-7-{3-[1-(3-methylbutyl)-1H-pyrazol-4-yl]pyridin-2-yl}quinoline]
76 nM	COc1cc2ccc(-c3nc(Cl)c(C)cc3-c3cnn(CC(C)(C)OC)c3)cc2nn1 [Example 31, 7-{6-chloro-3-[1-(2-methoxy-2-methylpropyl)-1H-pyrazol-4-yl]-5-methylpyridin-2-yl}-3-methoxycinnoline]
48 nM	CC(C)(C)Cn1cc(-c2ccc(C(F)F)nc2-c2ccc3cccnc3c2)cn1 [Example 109, 7-{6-(difluoromethyl)-3-[1-(2,2-dimethylpropyl)-1H-pyrazol-4-yl]pyridin-2-yl}quinoline]
33 nM	N#Cc1ccc(-c2cnn(CC3(C(F)F)CC3)c2)c(-c2ccc3cccnc3c2)n1 [Example 27, 5-(1-{[1-(difluoromethyl)cyclopropyl]methyl}-1H-pyrazol-4-yl)-6-quinolin-7-ylpyridine-2-carbonitrile]
